We go through seven molecules from patent publication US10183036B2, “Use of nicotinic acid riboside or nicotinamide riboside derivatives, and reduced derivatives thereof, as NAD+ increasing precursors” (Chromadex Inc., priority 2016, dated 2019).

One series relates to Hela cells. As to the kind of experiment: NAD content in cultured Hela cells supplemented with NAD+ precursor (EnzyChrom NAD+/NADH assay kit). It is filed as cell-based. The conditions noted are these: 100 μM precursor, 24 h at 37° C., control = 100.0; for activity at 100 µM: Homo sapiens. The procedure: Hela cells (passages 5-9) were grown in cell culture medium DMEM with 10% serum and were seeded in 6-well plates with a density of 3×10^5 cells per well containing 1 ml of culture medium overnight. The wells were aspirated, washed with PBS and 2 mL of fresh cell culture media was added. […] The media was aspirated and the wells washed with PBS, and for each condition 1×10^5 cells were isolated and analyzed using an ENZYCHROM™ NAD+/NADH ASSAY KIT (E2ND-100) following the manufacturer protocol (BioAssay Systems, Hayward, Calif.). This standard assay provides a quantitative colorimetric determination of NAD+/NADH at 565 nm.
Further, FIG. 9 presents the same data as a fold-increase in NAD over control. FIG. 8 presents a measurement of absolute NAD values (μM) in Hela cells (n=4) cultured in growth media supplemented with 100 μM of the corresponding NAD^+ precursor (nicotinyl riboside test compound) for 24 hours, versus control (NAD content in cells measured in the absence of treatment compound). A control value was determined for each replicate data set.

The subject of another series is cells. The conditions noted are these: Kulikova et al. 2015; cited from earlier work.
The nature of series [1]: Stability in aqueous solution at various temperature and pH. In kind it is physicochemical. On the procedure:
Nicotinamide riboside (NR) was prepared in 1000 ppm aqueous solution (w/v) at 2.5, 3.5 and 4.7 pH levels. Nicotinic acid riboside (NAR) was prepared n 1000 ppm aqueous solution (w/v) at 2.5, 3.5 and 6.2 pH levels. The six sample solutions were aliquoted into various small sealed vials to be used as individual sample pull points for analysis.

Consider `CC(=O)O[C@@H]1[C@@H](COC(=O)c2cccnc2)OC(=O)[C@@H]1OC(C)=O` [cyclic, 2′,3′-diacetyl-5′-nicotinoyl ribolactone], for which the “NAD % vs control” value with Hela cells is reported as 178.0%.
For `O=C(O)c1ccc[n+]([C@@H]2O[C@H](CO)[C@H](O)[C@H]2O)c1` [NAR, Nicotinic acid riboside], in the series on cells, the “concentration that supports cell survival” value was “about 1 micromolar”. In series [1] (1000 ppm aqueous solution, 4° C., after 140 days), the “assay (concentration remaining) after storage” value is reported as “greater than 95%”. Further, the “stability in comparison to NR” value in series [1] (aqueous solution, 4° C. and 25° C., all measured pH levels) is recorded as “much greater stability”. Moreover, the “stability over time in weeks” value in series [1] (aqueous solution, higher temperature and lower pH) is “markedly decreased”. Further, the activity at 100 µM in the series on Hela cells was 295%.
For `O=C(O)C1=CN([C@@H]2O[C@H](CO)[C@@H](O)[C@H]2O)C=CC1` [NARH, 1-(beta-D-ribofuranosyl)-1,4-dihydronicotinic acid], the activity at 100 µM with Hela cells came to 147%.
With `CC(=O)OC[C@H]1O[C@@H]([n+]2cccc(C(=O)O)c2)[C@H](OC(C)=O)[C@@H]1OC(C)=O` [NAR TA, 1-(2′,3′,5′-triacetyl-beta-D-ribofuranosyl)-nicotinic acid], the activity at 100 µM in the series with Hela cells was 173%.
As to `NC(=O)c1ccc[n+]([C@@H]2O[C@H](CO)[C@@H](O)[C@H]2O)c1` [NR, Nicotinamide riboside], the “amount required to maintain viability relative to NAR” value with cells was 10 times. Besides, in the series on Hela cells, the activity at 100 µM turned out to be 141%.
For `CC(=O)OC[C@H]1O[C@@H](N2C=CCC(C(N)=O)=C2)[C@H](OC(C)=O)[C@@H]1OC(C)=O` [NRH TA, 1-(2′,3′,5′-triacetyl-beta-D-ribofuranosyl)-1,4-dihydronicotinamide], the activity at 100 µM in the series on Hela cells was 146%.
As for `CC(=O)OC[C@H]1O[C@@H]([n+]2cccc(C(N)=O)c2)[C@H](OC(C)=O)[C@@H]1OC(C)=O` [NR TA, 1-(2′,3′,5′-triacetyl-beta-D-ribofuranosyl)-nicotinamide], in the series with Hela cells, the activity at 100 µM is 199%.
